# Entries after “also recorded” stand apart in the source; their conditions may differ.
# Legend:
# [1] = target: T1, rat homomeric P2X4 receptors (Rattus norvegicus, UniProt P51577); experiment: Whole-cell patch clamp, rat homomeric P2X4 receptors; format: cell-based; conditions: 1 μM; ATP
# T1 construct: expressed in transfected cells
# T1 sequence (P51577 1-388): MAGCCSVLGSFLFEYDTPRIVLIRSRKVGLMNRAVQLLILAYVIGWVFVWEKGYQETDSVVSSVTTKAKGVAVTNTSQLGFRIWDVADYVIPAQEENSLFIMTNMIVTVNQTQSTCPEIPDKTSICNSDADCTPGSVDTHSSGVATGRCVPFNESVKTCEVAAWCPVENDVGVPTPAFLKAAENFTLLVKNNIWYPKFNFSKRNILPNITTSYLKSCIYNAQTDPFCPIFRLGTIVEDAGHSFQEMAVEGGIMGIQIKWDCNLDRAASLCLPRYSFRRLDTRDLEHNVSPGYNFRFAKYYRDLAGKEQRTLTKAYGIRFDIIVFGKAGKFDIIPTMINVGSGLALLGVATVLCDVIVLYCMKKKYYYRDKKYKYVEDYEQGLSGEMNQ
# Description: FIG. 4. […] A. Example traces of responses induced by 10 μM ATP applied for 2 s every 2 min to HEK cells expressing rat homomeric P2X2 receptors in the presence and absence of 1 μM AppNHppA. B. Comparison of currents induced by the full agonist of P2X2 receptors, ATP, in the presence of 1 μM AppNHppA (right) and absence (left). C. The time course of the current in the presence and absence of 1 μM AppNHppA. D. Comparison of currents induced by the full agonist of rat homomeric P2X4 and P2X7 receptors, ATP, in the presence of 1 μM AppNHppA (right) and absence (left). Experiments were performed as in FIG. 2.
# (§1) Trigeminal, nodose, DRG neurons or HEK cells were recorded in the whole-cell configuration while being continuously superfused (at 2 mL/min) with control solution containing (in mM): 152 NaCl, 5 KCl, 1 MgCl2, 2 CaCl2, 10 glucose, and 10 HEPES; pH was adjusted to 7.4 with NaOH and osmolarity was adjusted to 320 mOsM with glucose. […] Responses to selective P2X3 receptor agonist α,β-methylene-ATP (α,β-meATP; resistant to ectoATPase hydrolysis, Sigma-Aldrich) were measured using an EPC-9 amplifier and HEKA Patch Master software (HEKA Electronik, Germany). Cells were voltage-clamped at −70 mV. In most cells, series resistance was compensated by 80%. […]
# [2] = system: native P2X3 receptors, dorsal root ganglia (DRG) neurons; experiment: α,β-meATP-induced currents in cultured dorsal root ganglia neurons; format: cell-based, rat; conditions: 1 μM, DRG neurons
# Description: Rat trigeminal (TG), nodose (NG) or dorsal root ganglion (DRG) neurons in culture were prepared as described previously (Sokolova et al., 2001; Simonetti et al., 2006). Neurons were plated on poly-L-lysine (0.2 mg/mL)-coated Petri dishes and cultured for 1 to 2 days under an atmosphere containing 5% CO2. Cells were used within 2 days of plating when they lacked processes. HEK293T cells were prepared as reported previously (Fabbretti et al., 2004; Sokolova et al., 2004) and transfected with rat full-length P2X3 cDNA subcloned into pIRES2-EGFP (Clontech, Mountain View, Calif., USA).
# as §1
# The peak amplitudes of the responses were measured using HEKA Patch Master software. […]
# [3] = system: rats with Partial Sciatic Nerve Ligation (PSNL); experiment: Partial Sciatic Nerve Ligation (PSNL) thermal hyperalgesia test; format: in vivo, rat; conditions: 50 μM
# Description: FIG. 9. […] Time-course of the effects of 50 μM (100 μL) of AppCH2ppA on PWL.
# PSNL, with tight ligation of 33-50% of the sciatic nerve trunk, is a neuropathic pain model. We sub-cutaneously injected 50 μM of AppCH2ppA ([…]) on thermal hyperalgesia in rats with PSNL. […] Results are expressed as mean+/−S.E.M. In this model, the antinociceptive effect is 62%.
SMILES,effect on P2X4 receptor-mediated currents [1],inhibition of sustained residual component [2],"effect on thermal hyperalgesia (PWL) ([3]; 100 μL, subcutaneous)","antinociceptive effect ([3]; sub-cutaneous, thermal hyperalgesia, PWL)"
Nc1ncnc2c1ncn2[C@@H]1O[C@H](COP(=O)(O)OP(=O)(O)NP(=O)(O)OP(=O)(O)OC[C@H]2O[C@@H](n3cnc4c(N)ncnc43)C(O)C2O)C(O)C1O (stereo in doubt) [AppNHppA],not observed to produce any effects; also recorded: non-inhibitory effect,18±6%,,
Nc1ncnc2c1ncn2[C@@H]1O[C@H](COP(=O)(O)OP(=O)(O)CP(=O)(O)OP(=O)(O)OC[C@H]2O[C@@H](n3cnc4c(N)ncnc43)C(O)C2O)C(O)C1O (stereo in doubt) [AppCH2ppA],,,reduced thermal hyperalgesia,62%

# Reference: patent publication US20150119352A1, “DINUCELOSIDE POLYPHOSPHATES FOR THE TREATMENT OF PAIN” (GlobalAcorn Ltd., priority 2012, published 2015)
